Where “and” joins values, the source holds several entries; their conditions need not be identical. Identical values can stand only once. Entries after “also recorded” stand apart in the source; their conditions may differ.
Columns and labels:
DRG neurons [1] = experiment: Calcium imaging of cultured DRG neurons: antagonist effects on responses to capsaicin, ATP or KCl (selectivity control); type: cell-based, mouse
Source text: (§1) Harvesting/culturing cells/loading cells: Thirty-nine three week old (4 wells of DRG neurons plated from each mouse), C57Bl/6 mice were anesthetized with isoflurane, and euthanized by cervical dislocation. Dorsal root ganglia (DRG) from lumbar regions were removed into HBSS, treated with trypsin, washed with MEM (Invitrogen 51200-038) containing 10% FBS (Hyclone), 2.4% glucose, 1% glutamax (Invitrogen 35050-061) and 1% penicillin/streptomycin (Atlanta Biological B2110). DRG were triturated, pre-plated and incubated at 37° C. for one hour to reduce non-neuronal cells. Neurons were gently swirled and centrifuged (110×g, 5 min). Cells were removed, re-suspended and 30 μL plated onto the 4 center wells of 24-well plates coated with poly-L-lysine and laminin. A 0.5 mm thick silicone ring with a 4 mm diameter opening sealed to the surface of each well reduced the plating area in each well. Following 1 hour, wells were filled with 37° C. culture medium with 10 ng/mL GDNF (Glial Derived Neurotrophic Factor) (Preprotech 450-10). Sixteen to 23 hours after plating, cultures were loaded with Fura-2 AM (Molecular Probes F-1221) fluorescent dye for 40-60 minutes, then washed with pH 7.4 oxygenated observation medium containing no additional ATP (145 mM NaCl, 5 mM KCl, 2 mM CaCl2, 1 mM MgCl2, 1 mM Citrate, 10 mM glucose, 10 mM MES, 10 mM HEPES). The final well volume was 500 μL.
(§2) JYL-1422, LJO-328, A-317567, and a selected stereo isomer of A-317567 were each dissolved in 5% DMSO/95% water and a few μL of 1M HCl to a concentration of 10 mM, then quick frozen and stored at −20° C. Aliquots of antagonists were thawed and diluted to the appropriate concentrations just prior to use in the experiments. The strong buffers maintained the pH of these antagonists when mixed with metabolites.
(§3) Imaging procedure: All experiments were performed at room temperature (20-25° C.) to allow correspondence with most previous experiments using calcium imaging and patch clamp of DRG neurons. Cells were imaged using the Meta Imaging Series Metafluor program (Universal Imaging Corp). All cells identifiable as neurons based on their round shape, clear, single nucleus, were selected from a phase image of the field. At the end of each experiment, 200 nM capsaicin was applied, followed by a wash, and then applied 50 mM KCl. Capsaicin activation indicated the presence of TRPV1 receptors on neurons, and KCl ensured that recorded objects were active neurons, and established the maximal calcium response in each neuron. For some neurons the administration of capsaicin abolished the potential for responding to KCl, thus either a response to capsaicin or to KCl indicated viability of neurons, and only viable neurons were included in analyses.
For each field an average of 151+10 cells were tracked real-time. […]

TRPV1 = TRPV1 (Homo sapiens, UniProt Q8NER1); conditions: cited from earlier work
DRG neurons [2] = experiment: Calcium imaging of cultured DRG neurons: percent of neurons responding to applied metabolites or capsaicin; type: cell-based, mouse; conditions: 200 nM
Source text: as §1
Choice and concentrations of metabolites: Because the afferent receptors in muscle have been reported to be on the outside of blood vessels supplying muscle, values obtained for muscle interstitium from experiments using cat, rat, and human for muscle contraction evoked by mild to moderate to extreme exercise were used.
Protons (pH): Values between 7.6 and 6.2 were used spanning the range found in skeletal and cardiac muscle in mammals from above resting values to those found with injury and disease.
Lactate: 1-50 mM lactate was used, a range of values that spans from rest to ischemia in muscles of humans and rats and mice.
ATP: ATP concentrations in muscle interstitium increase from 300 nM at rest to 5 μM with ischemic muscle contraction (Hellsten et al., 1998; Li et al., 2003; Li et al., 2005). These levels were used in the experiments described below. […] To allow for physiological levels of desensitization of possible P2X receptors, freshly prepared ATP at 300 nM was used for at least 30 seconds before any further increases in ATP combined with other metabolites, to establish resting conditions in DRG neurons in these experiments. […] Also used were pH 6.0 and 4.0 without additional increases in metabolites to confirm that the imaging experiments could replicate recent reports using patch-clamp techniques (Leffler et al., 2006).
(§4) Combinations of metabolites applied to mimic naturally occurring conditions: When applied in an escalating series to mimic increases in metabolites that occur with muscle exercise and ischemic muscle exercise, the metabolite values shown in Table 1 were used. The values associated with pH 7.6 are at or below those normally found at rest in the mouse. The values at 7.4 approximate those found at rest. Generally, the low metabolite values associated with pH higher than 7.0 are likely to be non-noxious, while higher metabolite values at pH 7.0 and lower may be associated with pain. These values should bracket the physiological range of metabolites found in skeletal muscle with the last two values (those associated with 6.4 and 6.2) being higher than the physiological range (Bangsbo et al., 1993; Bangsbo et al., 2001; Li et al., 2003; Li et al., 2005; Reeh and Kress, 2001; Steinhagen et al., 1976).
Di-I labeling: In some experiments, neurons were identified as innervating muscle by prior muscle labeling with Di-I. Twelve 7-9 day old mice were anesthetized by cooling. […]

DRG neurons [3] = conditions: patch-clamp, previous reports; cited from earlier work
DRG neurons [4] = experiment: Calcium imaging of cultured DRG neurons: antagonist effects on responses to increasing metabolites (protons, lactate, ATP); type: cell-based, mouse
Source text: as §1, §4, §2, §3
For each field an average of 151+10 cells were tracked real-time. […] FIGS. 1 and 2 show traces from these graphs. […]

P2X3 receptors = molecular target: T1, P2X3 receptors (Homo sapiens, UniProt P56373); conditions: cited from earlier work
T1 sequence (P56373 1-397): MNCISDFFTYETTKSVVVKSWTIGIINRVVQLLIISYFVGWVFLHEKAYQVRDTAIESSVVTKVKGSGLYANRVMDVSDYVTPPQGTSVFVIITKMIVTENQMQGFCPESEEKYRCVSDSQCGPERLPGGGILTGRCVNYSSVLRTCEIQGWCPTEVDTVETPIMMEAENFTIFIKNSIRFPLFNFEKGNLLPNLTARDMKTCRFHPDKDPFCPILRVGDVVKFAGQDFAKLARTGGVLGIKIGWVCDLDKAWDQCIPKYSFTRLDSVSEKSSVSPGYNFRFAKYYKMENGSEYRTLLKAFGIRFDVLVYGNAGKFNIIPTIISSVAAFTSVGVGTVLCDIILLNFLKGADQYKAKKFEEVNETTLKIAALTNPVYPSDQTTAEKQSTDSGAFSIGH

P2X5 receptors = P2X5 receptors (Homo sapiens, UniProt Q93086); conditions: cited from earlier work
mouse P2X4 receptors = molecular target: T2, mouse P2X4 receptors (Mus musculus, UniProt Q9JJX6); conditions: cited from earlier work
T2 sequence (Q9JJX6 1-388): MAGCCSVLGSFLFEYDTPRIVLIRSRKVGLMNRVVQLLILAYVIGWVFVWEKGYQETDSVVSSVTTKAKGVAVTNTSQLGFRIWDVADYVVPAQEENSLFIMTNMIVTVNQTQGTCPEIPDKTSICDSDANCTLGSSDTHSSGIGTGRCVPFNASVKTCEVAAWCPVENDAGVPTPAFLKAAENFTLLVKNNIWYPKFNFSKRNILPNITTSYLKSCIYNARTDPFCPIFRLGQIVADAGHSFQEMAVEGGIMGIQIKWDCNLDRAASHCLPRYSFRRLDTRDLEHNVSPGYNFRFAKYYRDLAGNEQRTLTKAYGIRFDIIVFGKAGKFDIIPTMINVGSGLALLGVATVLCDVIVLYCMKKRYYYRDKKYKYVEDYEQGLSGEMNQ

TRPV1 receptors = TRPV1 receptors (Mus musculus, UniProt Q704Y3); conditions: cited from earlier work
ASIC3 = molecular target: T3, ASIC3 (Homo sapiens, UniProt Q9UHC3); conditions: pH 7.0; cited from earlier work
T3 sequence (Q9UHC3 1-531): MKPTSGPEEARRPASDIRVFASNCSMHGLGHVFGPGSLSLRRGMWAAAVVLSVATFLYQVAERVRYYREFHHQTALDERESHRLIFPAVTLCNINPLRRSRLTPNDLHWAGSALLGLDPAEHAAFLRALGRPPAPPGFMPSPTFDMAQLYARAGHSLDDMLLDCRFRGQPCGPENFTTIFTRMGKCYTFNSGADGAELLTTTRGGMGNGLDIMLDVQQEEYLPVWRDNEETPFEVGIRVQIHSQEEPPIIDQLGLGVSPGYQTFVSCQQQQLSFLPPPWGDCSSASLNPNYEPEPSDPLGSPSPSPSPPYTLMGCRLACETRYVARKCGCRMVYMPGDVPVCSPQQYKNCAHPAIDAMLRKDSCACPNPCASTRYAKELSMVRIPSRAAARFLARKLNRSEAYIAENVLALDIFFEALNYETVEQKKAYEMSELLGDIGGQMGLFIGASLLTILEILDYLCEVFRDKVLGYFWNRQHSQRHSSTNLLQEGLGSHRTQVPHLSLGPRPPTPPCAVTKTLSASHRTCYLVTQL

ASIC receptor = conditions: cited from earlier work

Chain of TRPV1 receptors (Q704Y3 whole entry): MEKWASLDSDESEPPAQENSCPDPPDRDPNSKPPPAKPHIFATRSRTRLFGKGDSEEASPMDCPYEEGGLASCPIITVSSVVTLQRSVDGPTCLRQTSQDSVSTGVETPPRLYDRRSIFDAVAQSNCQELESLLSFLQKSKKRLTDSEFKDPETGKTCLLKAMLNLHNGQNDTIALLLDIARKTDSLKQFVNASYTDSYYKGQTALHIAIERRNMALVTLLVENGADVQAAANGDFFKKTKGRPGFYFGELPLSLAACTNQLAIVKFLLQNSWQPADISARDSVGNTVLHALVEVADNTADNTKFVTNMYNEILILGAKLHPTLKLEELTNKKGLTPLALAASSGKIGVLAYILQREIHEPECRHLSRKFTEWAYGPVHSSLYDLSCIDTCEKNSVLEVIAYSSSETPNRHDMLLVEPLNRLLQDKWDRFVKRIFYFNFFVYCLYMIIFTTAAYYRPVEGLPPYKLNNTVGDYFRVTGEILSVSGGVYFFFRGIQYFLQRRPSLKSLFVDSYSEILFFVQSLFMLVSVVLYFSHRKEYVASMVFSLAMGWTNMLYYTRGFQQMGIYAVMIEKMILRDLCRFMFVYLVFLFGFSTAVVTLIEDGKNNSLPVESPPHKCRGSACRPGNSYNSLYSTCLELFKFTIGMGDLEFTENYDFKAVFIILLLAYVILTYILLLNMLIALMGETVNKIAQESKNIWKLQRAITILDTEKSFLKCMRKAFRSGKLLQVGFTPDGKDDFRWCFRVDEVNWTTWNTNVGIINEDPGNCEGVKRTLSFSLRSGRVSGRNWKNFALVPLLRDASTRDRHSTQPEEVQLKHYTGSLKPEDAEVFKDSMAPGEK
Chain of P2X5 receptors (Q93086 whole entry): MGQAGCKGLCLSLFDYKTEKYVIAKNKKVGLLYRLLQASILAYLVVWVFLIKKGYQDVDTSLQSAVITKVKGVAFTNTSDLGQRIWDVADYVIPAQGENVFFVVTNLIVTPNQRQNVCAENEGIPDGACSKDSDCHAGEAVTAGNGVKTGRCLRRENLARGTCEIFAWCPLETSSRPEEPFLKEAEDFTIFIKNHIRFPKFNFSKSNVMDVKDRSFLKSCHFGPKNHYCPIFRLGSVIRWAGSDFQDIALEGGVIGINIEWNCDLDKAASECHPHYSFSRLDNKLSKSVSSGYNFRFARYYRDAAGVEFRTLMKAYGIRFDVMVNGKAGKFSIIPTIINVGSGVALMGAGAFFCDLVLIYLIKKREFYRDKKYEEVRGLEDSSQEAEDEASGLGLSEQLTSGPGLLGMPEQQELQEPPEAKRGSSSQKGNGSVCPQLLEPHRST
Chain of TRPV1 (Q8NER1 whole entry, species assumed): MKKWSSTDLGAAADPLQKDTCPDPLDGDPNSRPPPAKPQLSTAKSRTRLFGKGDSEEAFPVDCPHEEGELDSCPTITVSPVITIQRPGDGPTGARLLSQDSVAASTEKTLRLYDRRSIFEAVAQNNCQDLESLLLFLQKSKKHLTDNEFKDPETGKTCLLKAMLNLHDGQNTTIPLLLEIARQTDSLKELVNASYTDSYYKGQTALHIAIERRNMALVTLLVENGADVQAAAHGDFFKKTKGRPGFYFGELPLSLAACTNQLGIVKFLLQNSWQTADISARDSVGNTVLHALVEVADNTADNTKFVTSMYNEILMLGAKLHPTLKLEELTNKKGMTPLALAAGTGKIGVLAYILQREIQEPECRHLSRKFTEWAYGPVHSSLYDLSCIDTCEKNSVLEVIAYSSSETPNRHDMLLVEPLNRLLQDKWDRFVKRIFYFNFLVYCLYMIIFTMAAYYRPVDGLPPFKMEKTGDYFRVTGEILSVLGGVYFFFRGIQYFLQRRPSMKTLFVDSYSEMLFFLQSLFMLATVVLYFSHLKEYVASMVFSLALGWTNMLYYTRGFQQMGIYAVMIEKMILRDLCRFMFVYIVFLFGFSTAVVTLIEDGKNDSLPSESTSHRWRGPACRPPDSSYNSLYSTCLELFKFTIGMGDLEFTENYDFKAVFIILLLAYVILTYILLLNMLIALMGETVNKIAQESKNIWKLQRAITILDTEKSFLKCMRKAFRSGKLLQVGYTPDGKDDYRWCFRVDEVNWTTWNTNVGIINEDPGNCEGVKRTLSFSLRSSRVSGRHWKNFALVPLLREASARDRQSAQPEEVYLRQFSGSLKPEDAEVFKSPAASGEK

**Q.** Which “responses to KCl application in presence of antagonist” value (DRG neurons [1]; antagonist 2 μM, 50 mM KCl) does the source give for Cc1ccc(CC(CNC(=S)NCc2ccc(NS(C)(=O)=O)c(F)c2)COC(=O)C(C)(C)C)cc1C (centres unmarked) [JYL-1433] here?
**A.** The value was “remained normal”.

**Q.** What about the TRPV1 antagonism (TRPV1) of the same molecule?
**A.** The TRPV1 antagonism was “potent full antagonists of TRPV1”.

**Q.** Which results are given for COc1cc(CNC(=O)CCCC/C=C/C(C)C)ccc1O [capsaicin]?
**A.** percentage of DRG neurons responding with rapid calcium increase (DRG neurons [2]; all DRG neurons): 50.9±4.2%; percentage of DRG neurons responding with rapid calcium increase (DRG neurons [2]; all muscle labeled neurons): 48.8 ± 5.8%; percentage of DRG neurons responding with rapid calcium increase (DRG neurons [2]; metabolite-responding DRG neurons): 71.9 ± 4.2%; percentage of DRG neurons responding with rapid calcium increase (DRG neurons [2]; muscle labeled metabolite responders): 63.4 ± 5.8%; capsaicin responses in DRG neurons, percent (DRG neurons [3]): 36% and 20%

**Q.** For TNP-ATP, which “effect on responses to increasing metabolites” value (DRG neurons [4]; antagonist 10 nM) is on record?
**A.** Its value is “facilitated responses; also recorded: can increase responses of DRG neurons to increasing metabolites”.

**Q.** And the “effect on responses to increasing metabolites” value (DRG neurons [4]; antagonist 200 μM)?
**A.** The value was “blocked nearly all responses to metabolites; also recorded: abolished most responses to increasing metabolites”.

**Q.** And the “effect on metabolite responses associated with pH 6.8 and above” value (DRG neurons [4]; antagonist 1 and 10 μM)?
**A.** Its value is “had little effect”.

**Q.** What about the “effect on responses to low metabolites” value (DRG neurons [4]; antagonist 1 and 10 μM (FIG. 2 legend: 1 μM), metabolites between pH 7.3-7.0) of the same molecule?
**A.** The value was “reduced low metabolite responses; also recorded: reduced responses of DRG neurons; also recorded: eliminated most responses to low metabolites”.

**Q.** What about the “effect on responses to increasing metabolites” value (DRG neurons [4]; antagonist 200-300 μM, doses effective at all P2X receptors) of the same molecule?
**A.** Its value is “eliminated nearly all responses to increasing metabolites”.

**Q.** And the “effect on responses to metabolites” value (DRG neurons [4]; antagonist at 10 μM (so in the source), p<0.05)?
**A.** Its value is “increased responses to metabolites”.

**Q.** And the “capsaicin and KCl responses in presence of antagonist” value (DRG neurons [1]; any dose)?
**A.** Its value is “unaffected”.

**Q.** What about the IC50 (P2X3 receptors) of the same molecule?
**A.** The IC50 was 0.31 nM and 0.3 nM.

**Q.** And the IC50 (P2X5 receptors)?
**A.** Its IC50 is 500 nM.

**Q.** What about the IC50 (mouse P2X4 receptors) of the same molecule?
**A.** Its IC50 is 16000 nM.

**Q.** With Oc1cc2c(cc1O)CN(C(=S)NCCc1ccc(Cl)cc1)CCC2 [Capsazepine] as the molecule, how does the “inhibitory action on pH responses of TRPV1 receptors” value (TRPV1 receptors) read?
**A.** Its value is “little inhibitory action”.

**Q.** Which “effect on ASIC3 responses to moderate pH levels” value (ASIC3) does the source give for N=C(N)NC(=O)c1nc(Cl)c(N)nc1N [Amiloride] here?
**A.** The value was “enhanced”.

**Q.** What about the “effect on ASIC receptor responses to low pH” value (ASIC receptor) of the same molecule?
**A.** Its value is “antagonizes all ASIC receptor responses to low pH”.

Source: patent US20110262395A1, “SENSORY RECEPTORS FOR CHRONIC FATIGUE AND PAIN AND USES THEREOF” (UNIVERSITY OF UTAH RESEARCH FOUNDATION, priority 2008, published 2011)
